Data from patent publication US20040152710A1, “Use of norepinephrine reuptake modulators for preventing and treating vasomotor symptoms” (priority 2002, published 2004).
Like-named read-outs stand apart in the source and are kept apart here. Each block holds one compound with its values, some of them ahead of it.

Columns and labels:
[1] = target: T1, human hNET (Homo sapiens, UniProt P23975); experiment: Norepinephrine (NE) uptake assay in MDCK-Net6 cells; type: cell-based; conditions: for hNET % Specific NE uptake: at 1 μM
T1 construct: expressed in transfected cells
Procedure: (§1) Cells were plated at 300,000/T75 flask and cells were split twice weekly. […] Cells were plated at 250,000 cells/T75 flask and split twice weekly.
On day 1, cells were plated at 3,000 cells/well in growth medium and maintained in a cell incubator (37° C., 5% CO2). On day 2, growth medium was replaced with 200 μl of assay buffer (25 mM HEPES; 120 mM NaCl; 5 mM KCl; 2.5 mM CaCl2; 1.2 mM MgSO4; 2 mg/ml glucose (pH 7.4, 37° C.)) containing 0.2 mg/ml ascorbic acid and 10 μM pargyline. Plates containing cells with 200 μl of assay buffer were equilibrated for 10 minutes at 37° C. prior to addition of compounds. […] Data from these wells were used to define non-specific NE uptake (minimum NE uptake). Test compounds were prepared in DMSO (10 mM) and diluted in assay buffer according to test range (1 to 10,000 nM). Twenty-five microliters of assay buffer (maximum NE uptake) or test compound were added directly to triplicate wells containing cells in 200 μl of assay buffer. The cells in assay buffer with test compounds were incubated for 20 minutes at 37° C. […] The reaction was terminated by decanting the supernatant from the plate. The plates containing cells were washed twice with 200 μl assay buffer (37° C.) to remove free radioligand. The plates were then inverted, left to dry for 2 minutes, then reinverted and air dried for an additional 10 minutes. The cells were lysed in 25 μl of 0.25 N NaOH solution (4° C.), placed on a shake table and vigorously shaken for 5 minutes. After cell lysis, 75 μl of scintillation cocktail was added to each well and the plates were sealed with film tape. The plates were returned to the shake table and vigorously shaken for a minimum of 10 minutes to ensure adequate partitioning of organic and aqueous solutions. The plates were counted in a Wallac Microbeta counter (PerkinElmer) to collect the raw cpm data.
(§2) For each experiment, a data stream of cpm values collected from the Wallac Microbeta counter was downloaded to a Microsoft Excel statistical application program. Determination of percent specific NE uptake (% SB) at 1 μM are calculated using a Microsoft Excel spread sheet applying the following formula: [% SB of NE reuptake (% SB)=[(1−(mean cpm control wells−each cpm drug well)/(mean cpm control wells−mean cpm non-specific wells))×100]. Calculations of EC50 values were made using the transformed-both-sides logistic dose response program written by Wyeth Biometrics Department.

[2] = target: T2, hSERT (Homo sapiens, UniProt P31645); experiment: Serotonin (5-HT) uptake assay in JAR cells; type: cell-based; conditions: for hSERT % specific 5-HT uptake: at 1 μM
T2 construct: cells were stimulated with staurosporine (40 nM) to increase the expression of the 5-HT transporter; host or cells: JAR (human placental choriocarcinoma)
Procedure: as §1
The methods for 5-HT functional reuptake using the JAR cell line were modified using a previous literature report. […] On day 2, cells were stimulated with staurosporine (40 nM) to increase the expression of the 5-HT transporter. On day 3, cells were removed from the cell incubator two hours prior to assay and maintained at room temperature to equilibrate the growth medium to ambient oxygen concentration. Subsequently, the growth medium was replaced with 200 μl of assay buffer (25 mM HEPES; 120 mM NaCl; 5 mM KCl; 2.5 mM CaCl2; 1.2 mM MgSO4; 2 mg/ml glucose (pH 7.4, 37° C.)) containing 0.2 mg/ml ascorbic acid and 10 μM pargyline. […] Data from these wells were used to define non-specific 5-HT uptake (minimum 5-HT uptake). Test compounds were prepared in DMSO (10 mM) and diluted in assay buffer according to test range (1 to 1,000 nM). Twenty-five microliters of assay buffer (maximum 5-HT uptake) or test compound were added directly to triplicate wells containing cells in 200 μl of assay buffer. The cells were incubated with the compound for 10 minutes (37° C.). […] The cells were incubated with the reaction mixture for 5 minutes at 37° C. The 5-HT uptake reaction was terminated by decanting the assay buffer. The cells were washed twice with 200 μl assay buffer (37° C.) to remove free radioligand. The plates were inverted and left to dry for 2 minutes, then reinverted and air-dried for an additional 10 minutes. Subsequently, the cells were lysed in 25 μl of 0.25 N NaOH (4° C.) then placed on a shaker table and shaken vigorously for 5 minutes. After cell lysis, 75 μl of scintillation cocktail was added to the wells, the plates were sealed with film tape and replaced on the shake table for a minimum of 10 minutes. The plates were counted in a Wallac Microbeta counter (PerkinElmer) to collect the raw cpm data.
as §2

[3] = test system: naloxone-induced flush in morphine-dependent ovariectomized rats; experiment: Morphine-dependent rat model of hot flush (naloxone-induced flush, MD model); conditions: for changes in TST over time, effect on naloxone-induced flush: various doses; for ED50 value, abatement of naloxone-induced flush / effect on naloxone-induced flush at maximal flush / effect on naloxone-induced flush at maximal flush (dose response): 1 hour prior to naloxone; for ED50 value, abatement of naloxone-induced flush: maximal flush 15 minutes post-naloxone; for effect on naloxone-induced flush at maximal flush: 30 mg/kg intraperitoneally; for effect on naloxone-induced flush at maximal flush (dose response): 15 minutes post-naloxone; for ED50: Rattus norvegicus, read-out: ED50 value, abatement of naloxone-induced flush
Procedure: (§3) Dosing: All doses were prepared based on mg/kg.
(§4) Animals: Ovariectomized Sprague-Dawley rats (180-220 g) were obtained from a commercial vendor (Taconic, Germantown, N.Y.) and individually housed under 12 hours light/dark cycle in a room maintained at 25° C. Animals were provided with standard rat chow and water ad libitum.
Morphine-dependent model: Ovariectomized rats were injected once daily for 8-9 days with vehicle to minimize stress responses and then administered compound(s) on test day. On day 4 of dosing, morphine dependence was induced by sc implantation of two slow-release morphine pellets (75 mg/pellet) in the dorsal scapular region. […] Four to six days after implantation, morphine withdrawal was induced with an opioid antagonist (naloxone) that causes a transient increase in TST. […] Rats were mildly sedated with ketamine and a thermistor connected to a MacLab data acquisition system was taped to the base of the tail. Tail skin temperature was then monitored continuously for 35 minutes to establish a baseline temperature. Naloxone was subsequently administered and TST was measured for an additional 35 to 60 minutes (total recording time 70 to 95 minutes).
Statistical analysis: To analyze changes in TST induced by naloxone in morphine-dependent rats, all data were analyzed using a two factor repeated measure ANOVA for “treatment” and “time.” The model was fit to test whether there were significant differences in the responses between treatment groups. Naloxone administration is designated as time zero and data is then analyzed at 5 minute intervals. The first three readings were averaged and used as baseline TST scores. All data were analyzed as ΔTST (TST for each time point-baseline). Multiple comparisons (LSD p-values) among the treatment groups at each time point were used for the analysis. Efficacy of hot flush abatement was determined by evaluating statistical differences at the peak response time of 15 minutes post-nalbxone, when the maximal change in TST is observed. A customized SAS-excel (SAS Institute, Cary, N.C.) application was used applying a four parameter logistic model to determine ED50 values. A logistic dose transformation was performed on ΔTST. Maximum flush (ΔTST at 15 minutes post-naloxone) was used in the analysis and the minimum was locked at zero. […] Statisticians in the Biometrics Department (Wyeth Research, Collegeville, Pa.) developed a customized JMP application.

[4] = test system: tail skin temperature of ovariectomized rats; experiment: OVX-induced thermoregulatory dysfunction telemetry model
Procedure: as §3, §4
A temperature and physical activity transmitter (PhysioTel TA10TA-F40, Data Sciences International) was implanted subcutaneously in the dorsal scapular region and the tip of the temperature probe was tunneled subcutaneously 2.5 cm beyond the base of the tail. After a 7-day recovery period, TST readings were continuously recorded for the remainder of the study. Tail skin temperature readings were collected from each animal every 5 minutes with values obtained over a 10 second sampling period. The day before test day, an average baseline TST value was calculated for each animal by averaging temperature readings recorded during the 12 hours active (dark) phase. In these studies, animals were dosed approximately 1 hour prior to the onset of dark cycle.
Evaluation of a compound's ability to restore normal lowering of TST in the telemetry model was analyzed using hourly TST values calculated for each animal by averaging the 12 temperature readings obtained every 5 minutes over that recording time. To analyze ΔTST in the telemetry model, a two factors repeated measure ANOVA was performed. The model used for analysis was ΔTST=GRP (group)+HR (hours)+GRP*HR+BASELINE. Thus, the reported least squares means are the expected mean values as if both groups had the same baseline value. Post-hoc tests of hourly GRP*HR samples are t-tests of the difference between groups for each hour. To be conservative, a result was not considered significant unless the p-value was <0.025. All analyses were performed using SAS PROC MIXED (SAS, Carey, N.C.).

[5] = [3H]5-HT uptake, JAR cells, read-out: hSERT EC50

T1 sequence (P23975 whole entry): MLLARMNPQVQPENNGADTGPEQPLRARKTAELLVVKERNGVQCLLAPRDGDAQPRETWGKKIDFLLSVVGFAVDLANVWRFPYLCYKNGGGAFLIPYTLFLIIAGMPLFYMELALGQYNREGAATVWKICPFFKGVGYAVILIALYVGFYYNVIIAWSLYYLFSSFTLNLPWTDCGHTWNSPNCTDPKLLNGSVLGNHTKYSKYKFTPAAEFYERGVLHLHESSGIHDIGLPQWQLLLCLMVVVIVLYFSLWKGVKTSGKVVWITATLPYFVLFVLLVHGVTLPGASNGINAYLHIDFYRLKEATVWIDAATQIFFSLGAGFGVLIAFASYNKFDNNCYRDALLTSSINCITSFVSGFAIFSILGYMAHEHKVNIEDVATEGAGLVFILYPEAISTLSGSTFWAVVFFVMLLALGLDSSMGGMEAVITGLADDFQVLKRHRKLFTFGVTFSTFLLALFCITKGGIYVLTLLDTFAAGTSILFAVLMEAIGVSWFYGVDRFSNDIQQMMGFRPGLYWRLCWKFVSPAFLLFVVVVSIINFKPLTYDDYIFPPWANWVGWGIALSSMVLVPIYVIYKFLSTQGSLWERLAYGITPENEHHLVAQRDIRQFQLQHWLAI
T2 sequence (P31645 whole entry): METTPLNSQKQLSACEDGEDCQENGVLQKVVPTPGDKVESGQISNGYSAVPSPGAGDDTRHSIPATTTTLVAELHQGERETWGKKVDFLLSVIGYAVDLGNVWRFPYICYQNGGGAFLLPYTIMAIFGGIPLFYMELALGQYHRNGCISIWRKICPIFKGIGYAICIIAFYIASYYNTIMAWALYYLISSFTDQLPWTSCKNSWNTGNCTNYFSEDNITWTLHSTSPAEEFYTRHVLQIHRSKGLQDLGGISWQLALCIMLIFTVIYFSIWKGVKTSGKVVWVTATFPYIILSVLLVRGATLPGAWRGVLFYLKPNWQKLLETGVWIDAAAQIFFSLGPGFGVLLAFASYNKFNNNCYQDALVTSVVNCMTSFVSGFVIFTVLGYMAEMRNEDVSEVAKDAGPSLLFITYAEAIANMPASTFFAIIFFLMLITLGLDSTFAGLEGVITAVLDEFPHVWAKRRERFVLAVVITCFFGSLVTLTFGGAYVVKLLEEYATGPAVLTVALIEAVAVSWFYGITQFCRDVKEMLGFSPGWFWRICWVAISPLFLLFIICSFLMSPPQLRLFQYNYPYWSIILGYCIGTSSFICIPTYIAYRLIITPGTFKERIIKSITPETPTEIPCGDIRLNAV

SMILES: CN1CCN(CC(c2cccc(Cl)c2)C2(O)CCCCC2)CC1 (racemic) [1-[1-(3-chlorophenyl)-2-(4-methyl-1-piperazinyl)ethyl]cyclohexanol]
- EC50 [1]: 0.055 µM
- EC50 [2, 5]: 15.5 µM
- changes in TST over time, effect on naloxone-induced flush ([3]; sc): dose-dependently abate the naloxone-induced flush

SMILES: CN(C)C[C@@H](c1ccc(O)cc1)C1(O)CCCCC1 (single isomer, unassigned) [R-ODV, R-enantiomer of O-desmethylvenlafaxine]
- ED50 value, abatement of naloxone-induced flush ([3]; sc): 14.4+13 mg/kg

SMILES: COc1ccc([C@H](CN(C)C)C2(O)CCCCC2)cc1 (single isomer, unassigned) [R-venlafaxine, R-enantiomer of venlafaxine]
- ED50 value, abatement of naloxone-induced flush ([3]; sc): 8.3+3 mg/kg

SMILES: CN(C)C[C@H](c1ccc(O)cc1)C1(O)CCCCC1 (single isomer, unassigned) [S-ODV, S-enantiomer of ODV]
- ED50 value, abatement of naloxone-induced flush ([3]; sc): 13.3+8 mg/kg

SMILES: COc1ccc([C@@H](CN(C)C)C2(O)CCCCC2)cc1 (single isomer, unassigned) [S-venlafaxine, S-enantiomer of venlafaxine]
- ED50 value, abatement of naloxone-induced flush ([3]; sc): 10.9+3 mg/kg

- hNET % Specific NE uptake [1]: 23%
- hSERT % specific 5-HT uptake [2]: 72%
SMILES: OC1(C(CN2CCN(c3cccc(Cl)c3)CC2)c2cccc(Cl)c2)CCCCC1 (stereo not drawn) [1-[1-(3-chlorophenyl)-2-[4-(3-chlorophenyl)-1-piperazinyl]ethyl]cyclohexanol]

SMILES: CN1CCN(CC(c2cccc(F)c2)C2(O)CCCCC2)CC1 (stereo not drawn) [1-[1-(3-fluorophenyl)-2-(4-methyl-1-piperazinyl)ethyl]cyclohexanol]
- EC50 [1]: 0.24 µM
- hSERT EC50 ([2]; [3H]5-HT uptake, JAR cells): Inactive at 1 μm

- hNET % Specific NE uptake [1]: 38%
- hSERT % specific 5-HT uptake [2]: 87%
SMILES: COc1cccc(C(CN2CCN(c3cccc(C(F)(F)F)c3)CC2)C2(O)CCCCC2)c1 (stereo not drawn) [1-[1-(3-methoxyphenyl)-2-[4-[3-(trifluoromethyl)-phenyl]-1-piperazinyl]ethyl]cyclohexanol]

- hNET % Specific NE uptake [1]: 57%
- hSERT % specific 5-HT uptake [2]: 82%
SMILES: COc1cccc(C(CN2CCN(c3cccc(C(F)(F)F)c3)CC2)C2(O)CCCC2)c1 (stereo not drawn) [1-[1-(3-methoxyphenyl)-2-[4-[3-(trifluoromethyl)-phenyl]-1-piperazinyl]ethyl]cyclopentanol]

SMILES: COc1cccc(C(CN2CCN(Cc3ccccc3)CC2)C2(O)CCCCC2)c1 (stereo not drawn) [1-[1-(3-methoxyphenyl)-2-[4-phenylmethyl)-1-piperazinyl]ethyl]cyclohexanol]
- hNET % Specific NE uptake [1]: 43%
- hSERT % specific 5-HT uptake [2]: 49%

- hNET % Specific NE uptake [1]: 53%
- hSERT % specific 5-HT uptake [2]: 88%
SMILES: OC1(C(CN2CCN(Cc3ccccc3)CC2)c2ccc(F)cc2)CCCCC1 (stereo not drawn) [1-[1-(4-fluorophenyl)-2-[4-(phenylmethyl)-1-piperazinyl]ethyl]cyclohexanol]

- hNET % Specific NE uptake [1]: 65%
- hSERT % specific 5-HT uptake [2]: 79%
SMILES: COc1ccc(C(CN2CCN(C)CC2)C2(O)CCCCC2)cc1 (stereo not drawn) [1-[1-(4-methoxyphenyl)-2-[4-methyl-1-piperazinyl)ethyl]cyclohexanol]

SMILES: COc1cccc(C(CN2CCN(c3cccc(Cl)c3)CC2)C2(O)CCCCC2)c1 (stereo not drawn) [1-[2-(3-chlorophenyl)1-piperazinyl]-1-[3-methoxyphenyl)ethyl]cyclohexanol]
- hNET % Specific NE uptake [1]: 64%
- hSERT % specific 5-HT uptake [2]: 67%

SMILES: CN1CCN(CC(c2cccc(C(F)(F)F)c2)C2(O)CCCCC2)CC1 (stereo not drawn) [1-[2-(4-methyl-1-piperazinyl)-1-[3-(trifluoromethyl)-phenyl]ethyl]cyclohexanol]
- EC50 [1]: 0.087 µM
- EC50 [2, 5]: 33.6 µM

- hNET % Specific NE uptake [1]: 59%
- hSERT % specific 5-HT uptake [2]: 58%
SMILES: COc1cccc(C(CN2CCN(c3cncc(Cl)n3)CC2)C2(O)CCCCC2)c1 (stereo not drawn) [1-[2-[4-(6-chloro-2-pyrazinyl)-1-piperazinyl]-1-[3-methoxyphenyl)ethyl]cyclohexanol]

SMILES: OC1(C(CN2CCN(Cc3ccccc3)CC2)c2cccc(C(F)(F)F)c2)CCCCC1 (stereo not drawn) [1-[2-[4-(phenylmethyl)]-1-piperazinyl]-1-[3-(trifluoromethyl)phenyl]ethyl]cyclohexanol]
- hNET % Specific NE uptake [1]: 19%
- hSERT % specific 5-HT uptake [2]: 94%

SMILES: CN(C)CC(c1ccc(O)cc1)C1(O)CCCCC1 (stereo not drawn) [DVS-233, O-desmethyl-venlafaxine]
- changes in TST over time ([4]; 60 mg/kg sc): significantly and transiently decreases TST during the active phase

SMILES: CN(C)CC(c1cccc(Cl)c1)C1(O)CCCCC1 (stereo not drawn) [WY-781]
- effect on naloxone-induced flush at maximal flush [3]: abated the naloxone-induced flush

SMILES: CN(C)CC(c1cccc(C(F)(F)F)c1)C1(O)CCCCC1 (stereo not drawn) [WY-867]
- effect on naloxone-induced flush at maximal flush [3]: abated the naloxone-induced flush

SMILES: CCC1(c2cnc[nH]2)Cc2ccccc2C1 [atipamezole]
- changes in TST after naloxone, alone ([3]; 0.3 mg/kg sc, 55 minutes prior to naloxone): not significantly different from vehicle treated rats

SMILES: CNCCCN1c2ccccc2CCc2ccccc21 [desipramine]
- changes in TST over time ([4]; 10 mg/kg sc): significantly decreases TST over the entire length of the active phase
- abatement of naloxone-induced flush, alone ([3]; 1 mg/kg sc, 40 minutes prior to naloxone): approximately 50%
- hot flush abatement ([3]; 3 mg/kg desipramine co-administered with 10 mg/kg SRI): 100%
- abatement of naloxone-induced hot flush ([3]; 10 mg/kg sc): 90.4%
- abatement of naloxone-induced hot flush ([3]; 30 mg/kg sc): 96.7%
- ED50 value of desipramine in the presence of fluoxetine ([3]; co-administered fluoxetine 10 mg/kg sc): did not change
- abatement of naloxone-induced flush in combination with atipamezole ([3]; desipramine 1 mg/kg with atipamezole 0.3 mg/kg, sc): additive effect
- abatement of naloxone-induced hot flush when SRI co-administered ([3]; desipramine 10 mg/kg with fluoxetine 10 mg/kg): significantly enhanced abatement of naloxone-induced hot flush
- reduction of TST compared to vehicle treated rats ([3]; low dose, naloxone-induced hot flush): 50%
- effect on naloxone-induced flush at maximal flush (dose response) ([3]; sc): dose-dependently abates the naloxone-induced flush

SMILES: CNCCC(Oc1ccc(C(F)(F)F)cc1)c1ccccc1 (stereo not drawn) [fluoxetine]
- effect on naloxone-induced flush, alone ([3]; fluoxetine 10 mg/kg sc): did not abate the naloxone-induced flush

- EC50 [2]: 0.275 µM
SMILES: CNCCC(Oc1ccccc1OC)c1ccccc1 (stereo not drawn) [nisoxetine, reference compound]

SMILES: Fc1ccc([C@@H]2CCNC[C@H]2COc2ccc3c(c2)OCO3)cc1 [paroxetine]
- ED50 ([3]; sc): 22.3 mg/kg

SMILES: CCOc1ccccc1OC(c1ccccc1)C1CNCCO1 (stereo not drawn) [reboxetine]
- effect on naloxone-induced flush at maximal flush (dose response) ([3]; sc): dose-dependently abates the naloxone-induced flush
- changes in TST over time, effect on naloxone-induced flush ([3]; sc): dose-dependently abate the naloxone-induced flush

SMILES: COc1ccc(C(CN(C)C)C2(O)CCCCC2)cc1 (stereo not drawn) [venlafaxine]
- changes in TST over time ([4]; 15 mg/kg sc): significantly and transiently decreased TST during the active phase
- ED50 ([3]; sc): 15 mg/kg
- effect on elevated naloxone-dependent hot flush induced by atipamezole ([3]; adrenergic α2 receptor antagonist atipamezole given): able to alleviate
